In paper PMC5469451, “Identification of compounds that suppress Toxoplasma gondii tachyzoites and bradyzoites” (PLoS ONE, 2017):
Like-named read-outs stand apart in the source and are kept apart here.

What was measured:
[1] = test system: PLK/DLUC_1C9 parasites in HFF cells; assay: Bradyzoite differentiation assay, relative BAG1 promoter activity (Dual-Glo); format: cell-based, Toxoplasma gondii; conditions: 1 μM hydroxyzine, 2.5 μM tanshinone IIA; added 24 h after infection, 48 h treatment
Experimental: To measure bradyzoite induction activities of tanshinone IIA and hydroxyzine, PLK/DLUC_1C9 parasites were purified and then inoculated at a concentration of 2.0 x 10^4 parasites/well into 12-well plates containing confluent monolayers of HFF cells. Cells were incubated for 24 h after infection, then compounds were added, and the cells were incubated for 48 h. After incubation, the cells in each well were lysed using 200 μL of Passive Lysis Buffer (Promega) and the lysates were stored at -80°C. For the luciferase assay, 25 μL of lysate was used and the Renilla and firefly luciferase activities were measured by using Dual-Glo (Promega) according to the manufacturer’s instruction.

[2] = test system: RH-2F intracellular parasites in HFF cells; assay: Intracellular parasite growth after invasion (β-galactosidase); format: cell-based, Toxoplasma gondii; conditions: uninvaded parasites washed away, 48 h; 1.0 μM hydroxyzine, 2.5 μM tanshinone IIA, 25 mg/ml DS10
Experimental: (§1) To measure the effects of tanshinone IIA and hydroxyzine on intracellular parasite growth, parasites were allowed to invade for 2 h, uninvaded parasites were washed away, and medium with compounds was added. After 48 h, the plates were frozen at -80°C. Plates were then thawed just prior to the measurement of beta-galactosidase activity. Beta-Glo (Promega) was used to measure β-galactosidase activity following the manufacturer’s instructions.

HFF cells [3] = assay: Host cell viability in bradyzoite differentiation condition; format: cell-based, human
Experimental: To evaluate the host cell viability in bradyzoite differentiation condition, HFF cells were incubated for 48 h in DMEM containing 25 mM HEPES pH 8.1 and 1% FBS and measured the viability as described above.

[4] = Host cell cytotoxicity assay (Cell-Titer Glo), HFF cells; format: cell-based, human; conditions: human, HFF cells, 2.5 μM, 48 h, HFF cells, read-out: Host cell viability (%)
Experimental: (§2) Vero cells and HFF cells were both used as host cells because both cell types were used for the parasite screening. After incubation for 48 h in DMEM supplemented with 5% FBS, L-glutamine, penicillin, and streptomycin, cell viabilities were measured by using a Cell-Titer Glo kit (Promega) following the manufacturer’s instructions. Control wells were treated with DMSO alone in culture medium to calculate the 100% viability for each cell type.

HFF cells [5] = assay: as above; format: cell-based, human; conditions: 25 μM, 48 h, HFF cells, compared with DMSO
Experimental: as §2

[6] = test system: PLK/DLUC_1C9 in vitro-induced bradyzoites in HFF cells; assay: Effect on in vitro-induced bradyzoites (Dual-Glo firefly luciferase, BAG1 promoter); format: cell-based, Toxoplasma gondii; conditions: 3 days bradyzoite induction, then 10, 5, 2.5, 1 μM for 48 h; relative to DMSO
Experimental: To measure the effect of tanshinone IIA and hydroxyzine on in vitro-induced bradyzoites, we used PLK/DLUC_ 1C9 parasites and the Dual-Glo luciferase assay. Briefly, HFF cells in 96-well plates were infected with 1 x 10^4 parasites/well and incubated for 3 days with ambient CO2 condition in DMEM containing 25 mM HEPES pH 8.1 and 1% FBS to induce bradyzoites. Induced bradyzoites were treated with 10, 5, 2.5, and 1 μM compounds under bradyzoite-inducing conditions. After 48 h, luciferase activities were measured by using the Dual-Glo assay system (Promega) and normalized by host cell number.

[7] = test system: RH-2F tachyzoites (type I strain) in HFF cells; assay: Confirmatory screening: RH-2F β-galactosidase growth assay in HFF cells; format: cell-based, Toxoplasma gondii; conditions: for IC50: RH-2F in HFF cells, β-galactosidase assay, read-out: IC50 for parasite growth (95% CI)
Experimental: In the confirmatory screening, we utilize an RH strain β-galactosidase reporter parasite termed RH-2F (a type I strain). Briefly, RH-2F parasites were purified from freshly lysed infected host cells and used to infect confluent HFF cells cultured in 96-well plates. Five hundred parasites were added to each well, along with each test compound and 50 μL of culture medium. Plates were then incubated for 10 min at room temperature followed by an incubation at 37°C for 48 h in a CO2 incubator.
as §1

[8] = test system: PruΔku80Δhxgprt in HFF cells; assay: Immunofluorescence-based assay on spontaneously induced bradyzoites; format: cell-based, Toxoplasma gondii; conditions: 10, 2, 0.4, 0.08 μM, 48 h; for Bradyzoite differentiation (GFP-positive PV rate): compared with DMSO
Experimental: PruΔku80Δhxgprt, which expresses GFP under the control of a bradyzoite-specific gene LDH2 promoter, [13] was used. HFF host cells were seeded to a 96-well glass bottom plate (MGB096-1-2-LG-L, Brooks Automation, MA, USA) and cultured until confluent. Parasites were freshly lysed by passing them through 27 G needles and were purified by passing them through a 5-μm-pore filter. Five thousand parasites in 100 μL of culture medium were added and mixed with an equal volume of compound-containing medium to give final drug concentrations of 10, 2, 0.4, and 0.08 μM in 0.2% DMSO. After incubation at room temperature for 10 min, the infected host cells were incubated for 48 h at 37°C in a 5% CO2 incubator. After incubation, the cells were fixed with 4% paraformaldehyde in PBS for 20 min, quenched, and permeabilized with 0.2 M glycine and 0.2% TritonX-100 in PBS for 20 min, and then blocked with 3% BSA and 0.1% Tween 20 in PBS (blocking buffer); each procedure was performed at room temperature and was followed by washes with PBS three times. All parasites were stained with an anti-Toxoplasma mouse antibody (antisera produced in ME49-infected mice), and bradyzoites were detected with an anti-GFP rabbit monoclonal antibody (Life Technologies). Secondary antibodies for mouse (Alexa633 conjugated) and rabbit (Alexa488 conjugated) and DAPI were used to develop the fluorescent signal. Stained cells on 96-well plates were analyzed with a CompuCyte iCys Research Imaging Cytometer (Beckman Coulter, IN, USA).

[9] = Host cell cytotoxicity assay (Cell-Titer Glo), Vero cells; format: cell-based; conditions: African green monkey; 10 μM, 48 h, Vero cells; DMSO = 100%; read-out: Host Viability (%)
Experimental: as §2, with “Host cells were treated with compounds at the same concentration used for screening (i.e., 0.5% DMSO and 10 μM compound). Vero” for “Vero”

[10] = test system: PLK/DLUC_1C9 tachyzoites in Vero cells; assay: Primary screening: T. gondii growth assay, Renilla luciferase; format: cell-based, Toxoplasma gondii; conditions: Toxoplasma gondii; 10 μM, 48 h, PLK/DLUC_1C9 in Vero cells; DMSO = 0%, 10 μM pyrimethamine = 100%; read-out: Parasite Inhibition (%)
Experimental: In the primary screening, purified PLK/DLULC_1C9 tachyzoites were incubated with Vero cells at a multiplicity of infection (MOI) of 0.5. After a 2-h incubation, the infected host cells were trypsinized to obtain a cell suspension and then these suspended infected cells were inoculated into 96-well optical bottom plates containing the compound library. Each well was inoculated with 2500 cells in 25 μL of culture medium. […] Following cell inoculation, each well therefore contained 0.5% DMSO and 10 μM compound. After 48 h of culture, Renilla luciferase activity was measured by using Renilla-Glo (Promega, WI, USA) following the manufacturer’s instructions. […] The Z’-value for each plate was calculated from the Renilla luciferase activity in the negative and positive control wells.

[11] = 2.5 μM, 48 h, RH-2F in HFF, compared with 10 μM pyrimethamine

SMILES	Relative BAG1 promoter activity (bradyzoite ratio) compared with 5 μM pyrimethamine treatment [1]	Parasite growth when compound added after 2 h invasion window [2]	Host cell viability under the bradyzoite-inducing condition (HFF cells [3]; pH 8.1)	viability at 48 h, 2.5 µM [4]	Host cell viability (%) (HFF cells [5])	Host cell viability (%) (HFF cells [5]; listed as hydroxyzine)	Bradyzoite number (firefly luciferase under BAG1 promoter, normalized by host cell number) [6]	Parasite inhibition (%) [7, 11]	inhibition at 25 µM ([7]; Toxoplasma gondii, 48 h, RH-2F in HFF, compared with 10 μM pyrimethamine, read-out: Parasite inhibition (%))	IC50 ([7]; Toxoplasma gondii)	Parasite growth (total parasite vacuole size) [8]	Bradyzoite differentiation (GFP-positive PV rate) [8]	viability at 48 h, 10 µM [9]	inhibition at 10 µM [10]	Host cell viability under the bradyzoite-inducing condition (HFF cells [3]; HFF, pH 8.1, 1% FBS, 48 h)	viability at 2.5 µM [4]	inhibition at 2.5 µM ([7]; Toxoplasma gondii, HFF, 48 h, 2.5 μM, 48 h, RH-2F in HFF, compared with 10 μM pyrimethamine, read-out: Parasite inhibition (%))	inhibition at 25 µM ([7]; Toxoplasma gondii, HFF, 48 h, 48 h, RH-2F in HFF, compared with 10 μM pyrimethamine, read-out: Parasite inhibition (%))	viability at 10 µM [9]
OCCOCCN1CCN(C(c2ccccc2)c2ccc(Cl)cc2)CC1 (stereo not shown) [Hydroxyzine]	0.4%	reduced parasite growth in a dose dependent manner	did not affect the host cell viability	102%	100%	no effect on host cell viability	reduced the bradyzoite number	100%	107%	1 µM	reduced parasite growth in a concentration-dependent manner	did not induce bradyzoite differentiation even at high concentrations	101%	97%					
Cc1coc2c1C(=O)C(=O)c1c-2ccc2c1CCCC2(C)C [Tanshinone IIA]	4.7%	reduced parasite growth in a dose dependent manner			75%		reduced the bradyzoite number	55%		2.5 µM	reduced parasite growth in a concentration-dependent manner	did not induce bradyzoite differentiation even at high concentrations		91%	slightly reduced the host cell number	99%	> 50%	112%	83%
